Laboratory results reported in patent US9662320B2, “Antagonists of the cannabinoid receptor CB1 for use in the treatment of diseases associated with neuronal dendritic abnormalities” (Universitat Pompeu Fabra, priority 2013, dated 2017).

Tested on: Fmr1^−/y mice
Assay: Dendritic spine density and morphology analysis in Fmr1−/y mice treated with rimonabant
Assay type: in vivo
Conditions: 1 mg/kg, i.p., 7 d
Description: Fmr1 knockout (KO) mice in FVB background (Fmr1 KO, FVB.129P2-Pde6b^+ Tyr^c-ch Fmr1^tm1Cgr/J) and wild-type mice (WT, FVB.129P2-Pde6b^+ Tyr^c-ch/AntJ) were purchased from The Jackson Laboratory and crossed to obtain Fmr1^−/y and WT littermates. All experimental animals were bred in-house at the Barcelona Biomedical Research Park (PRBB) Animal Facility. Fmr1^−/y and WT mice were used at 12 to 16 weeks of age. Mice were housed four per cage in a temperature (21±1° C.) and humidity (55±10%) controlled environment. Food and water were available ad libitum. All the experiments were performed during the light phase of a 12 h light/dark cycle (lights on at 8 am and off at 8 pm). Animals were handled for one week before starting the experiments. All animal procedures followed the standard ethical guidelines (European Communities Directive […]) and were approved by the local ethical committee (Comitè Èlic d'Experimentació Animal-Parc de Recerca Biomèdica de Barcelona, CEEA-PRBB). The PRBB has also the Animal Welfare Assurance (#A5388-01, IACUC Approval Date Jun. 8, 2009) granted by the Office of Laboratory Animal Welfare (OLAW) of the National Institutes of Health (USA). All behavioral tests were performed by researchers blind to the different experimental groups.
Rimonabant was obtained from Sanofi-Aventis (Sanofi-Aventis Recherche). Rimonabant was injected intraperitoneally (i.p.) in a volume of 10 ml per kg.
Dendritic spine analysis was performed as previously described (Lee K W. et al., Proc Natl Acad Sci USA. 2006; 103(9): 3399-404) in mice that received a chronic administration of rimonabant (1 mg kg^−1, 7 d) or its vehicle. Brains were extracted after perfusion (4% PFA in PB) 3 h after the last administration of rimonabant or vehicle solution on the seventh day of treatment. […]
Results are reported as mean±s.e.m. The experiments were evaluated by one-way analysis of variance (ANOVA) followed by the Dunnett's post-hoc test when required. […]

[1] = compared to vehicle-treated Fmr1^−/y mice

## Cc1c(C(=O)NN2CCCCC2)nn(-c2ccc(Cl)cc2Cl)c1-c1ccc(Cl)cc1 [rimonabant, 5-(4-Chlorophenyl)-1-(2,4-dichloro-phenyl)-4-methyl-N-(piperidin-1-yl)-1H-pyrazole-3-carboxamide]
CA1 field of the hippocampus
  dendritic spine density of CA1 pyramidal neurons: normalized
[1]
  mushroom/wide (mature) spines: increase
  thin/stubby (immature) spines: decrease
